# Literature values as cited in patent US6369065B1, “CD40 signal blocking agent” (UCB S.A., priority 2000, dated 2002).
# Test system: aorta lesions
# Settings: rabbit models of arteriosclerosis
smiles,measurement,value
CCCCCN(CCO)c1cc(N2CCCCC2)nc2ncnn12 [AR12463],progress of aorta lesions,suppress the progress of aorta lesions
